In brackets after ≈: the same amount, converted by molar mass.

The text below walks through data of ChEMBL document CHEMBL1926636, “Isoxazoles incorporated N-substituted decahydroquinolines: a precursor to the next generation antimicrobial drug” (2012).

For experiment [1], the system named is Salmonella typhi. Description: Antibacterial activity against Salmonella typhi ATCC 6539 at 10 ug/mL after 24 hrs by disc diffusion method. Particulars: Salmonella enterica, ATCC 6539, 24 h; read-out: IZ. It counts as functional, Salmonella enterica subsp. enterica serovar Typhi. (In general: In agar diffusion tests the substance spreads into inoculated agar from a disc or well.)

Experiment [2] relates to Staphylococcus aureus. Description: Antibacterial activity against Staphylococcus aureus ATCC 6538 by twofold serial dilution technique. It counts as functional.
The subject of experiment [3] is Bacillus subtilis. Description: Antibacterial activity against Bacillus subtilis ATCC 6631 by twofold serial dilution technique. It counts as functional.
Experiment [4] has as its system Bacillus subtilis. Description: Antibacterial activity against Bacillus subtilis ATCC 6631 at 10 ug/mL after 24 hrs by disc diffusion method. Particulars: ATCC 6631, 24 h, read-out: IZ. The format is functional.
The test system of experiment [5] is Aspergillus fumigatus. Description: Antifungal activity against Aspergillus fumigatus ATCC 28212 at 10 ug/mL after 72 hrs by agar cup plate method. The format is functional. Particulars: ATCC 28212, 72 h, read-out: IZ.
Experiment [6] concerns Lysinibacillus sphaericus. The experiment can be described thus: Antibacterial activity against Bacillus sphaericus ATCC 7031 at 10 ug/mL after 24 hrs by disc diffusion method. The settings on record: ATCC 7031, 24 h, read-out: IZ. The format is functional.
The subject of experiment [7] is Lysinibacillus sphaericus. Description: Antibacterial activity against Bacillus sphaericus ATCC 7031 by twofold serial dilution technique. It counts as functional.
Experiment [8] relates to Escherichia coli. Description: Antibacterial activity against Escherichia coli ATCC 35218 at 10 ug/mL after 24 hrs by disc diffusion method. It counts as functional. Particulars: ATCC 35218, 24 h, read-out: IZ.
Experiment [9] has as its system Candida albicans. Description: Antifungal activity against Candida albicans PYCC 3436 by twofold serial dilution technique. The format is functional.
Experiment [10] deals with Aspergillus niger. The experiment can be described thus: Antifungal activity against Aspergillus niger ATCC 16404 at 10 ug/mL after 72 hrs by agar cup plate method. It counts as functional. Particulars: ATCC 16404, 72 h, read-out: IZ.
Experiment [11] concerns Pseudomonas aeruginosa. Description: Antibacterial activity against Pseudomonas aeruginosa ATCC 9027 by twofold serial dilution technique. The format is functional.
Experiment [12] relates to Candida albicans. The experiment can be described thus: Antifungal activity against Candida albicans PYCC 3436 at 10 ug/mL after 72 hrs by agar cup plate method. It counts as functional. The settings on record: PYCC 3436, 72 h, read-out: IZ.
In experiment [13] the test system is Aspergillus niger. The experiment can be described thus: Antifungal activity against Aspergillus niger ATCC 16404 by twofold serial dilution technique. It counts as functional.
Experiment [14] deals with Candida albicans. Description: Antifungal activity against Candida albicans ATCC 90028 at 10 ug/mL after 72 hrs by agar cup plate method. It counts as functional. Particulars: ATCC 90028, 72 h, read-out: IZ.
Experiment [15] relates to Pseudomonas aeruginosa. The experiment can be described thus: Antibacterial activity against Pseudomonas aeruginosa ATCC 9027 at 10 ug/mL after 24 hrs by disc diffusion method. The format is functional. The settings on record: ATCC 9027, 24 h, read-out: IZ.
The test system of experiment [16] is Escherichia coli. Description: Antibacterial activity against Escherichia coli ATCC 35218 by twofold serial dilution technique. The format is functional.
The subject of experiment [17] is Salmonella typhi. Description: Antibacterial activity against Salmonella typhi ATCC 6539 by twofold serial dilution technique. It counts as functional, Salmonella enterica subsp. enterica serovar Typhi. Particulars: Salmonella enterica.
Experiment [18] concerns Aspergillus fumigatus. Description: Antifungal activity against Aspergillus fumigatus ATCC 28212 by twofold serial dilution technique. It counts as functional.
Experiment [19] concerns Candida albicans. Description: Antifungal activity against Candida albicans ATCC 90028 by twofold serial dilution technique. It counts as functional.
For experiment [20], the system named is Staphylococcus aureus. The experiment can be described thus: Antibacterial activity against Staphylococcus aureus ATCC 6538 at 10 ug/mL after 24 hrs by disc diffusion method. The format is functional. Particulars: ATCC 6538, 24 h, read-out: IZ.

In the case of `c1ccc(CN2C(c3ccccc3)C3=C(NOC3c3c[nH]c4ccccc34)C3CCCCC32)cc1` (stereo not given), the zone of inhibition at 10 µg/mL in the experiment on Salmonella typhi [1] is 7 mm; in the experiment on Bacillus subtilis [4], 3 mm; in the experiment on Aspergillus fumigatus [5] it was 5 mm; in experiment [6], 6 mm; in the experiment with Escherichia coli [8], 7 mm; in the experiment with Aspergillus niger [10], 9 mm. Also, the zone of inhibition at 10 µg/mL with Candida albicans [12] was 11 mm; in the experiment on Candida albicans [14] it was 13 mm; in the experiment with Pseudomonas aeruginosa [15] it was 5 mm; with Staphylococcus aureus [20], 11 mm. Moreover, the MIC99 in the experiment with Staphylococcus aureus [2] was 50 µg/mL (≈ 108 µM); in the experiment with Bacillus subtilis [3], more than 100 µg/mL; in [7], 100 µg/mL (≈ 217 µM); in the experiment on Candida albicans [9], 50 µg/mL (≈ 108 µM); against Pseudomonas aeruginosa [11], 25 µg/mL (≈ 54.2 µM); in the experiment on Aspergillus niger [13], more than 100 µg/mL. In addition, the MIC99 against Escherichia coli [16] was 25 µg/mL (≈ 54.2 µM); with Salmonella typhi [17] it was more than 100 µg/mL; in the experiment with Aspergillus fumigatus [18], 25 µg/mL (≈ 54.2 µM); with Candida albicans [19], 100 µg/mL (≈ 217 µM).
As for `COc1ccc(C2ONC3=C2C(c2ccccc2)N(Cc2ccccc2)C2CCCCC32)cc1OC` (stereo not given), the zone of inhibition at 10 µg/mL in the experiment on Salmonella typhi [1] is 12 mm; in the experiment with Bacillus subtilis [4], 7 mm; with Aspergillus fumigatus [5], 6 mm; in [6], 9 mm; in the experiment on Escherichia coli [8], 6 mm; in the experiment with Aspergillus niger [10] it was 14 mm. In addition, the zone of inhibition at 10 µg/mL is 9 mm in the experiment with Candida albicans [12], 15 mm with Candida albicans [14], 4 mm in the experiment on Pseudomonas aeruginosa [15] and 9 mm in the experiment with Staphylococcus aureus [20]. Moreover, the MIC99 in the experiment with Staphylococcus aureus [2] is 100 µg/mL (≈ 207 µM); against Bacillus subtilis [3], 50 µg/mL (≈ 104 µM); in experiment [7] it was 100 µg/mL (≈ 207 µM); with Candida albicans [9], 50 µg/mL (≈ 104 µM); against Pseudomonas aeruginosa [11] it was 25 µg/mL (≈ 51.8 µM); with Aspergillus niger [13] it was 100 µg/mL (≈ 207 µM). The MIC99 stood at 50 µg/mL (≈ 104 µM) with Escherichia coli [16], 100 µg/mL (≈ 207 µM) with Salmonella typhi [17], 12.5 µg/mL (≈ 25.9 µM) in the experiment with Aspergillus fumigatus [18] and 50 µg/mL (≈ 104 µM) in the experiment on Candida albicans [19].
For the compound `O=[N+]([O-])c1ccc(C2ONC3=C2C(c2ccccc2)N(Cc2ccccc2)C2CCCCC32)cc1` (stereo not given), the zone of inhibition at 10 µg/mL is 10 mm with Salmonella typhi [1]; 4 mm with Bacillus subtilis [4]; 6 mm in the experiment with Aspergillus fumigatus [5]; 14 mm in experiment [6]; 5 mm with Escherichia coli [8]; 13 mm in the experiment on Aspergillus niger [10]. The zone of inhibition at 10 µg/mL came to 12 mm with Candida albicans [12], 19 mm in the experiment with Candida albicans [14], 6 mm in the experiment with Pseudomonas aeruginosa [15] and 11 mm in the experiment on Staphylococcus aureus [20]. In addition, the MIC99 against Staphylococcus aureus [2] amounted to 50 µg/mL (≈ 107 µM); in the experiment with Bacillus subtilis [3], 100 µg/mL (≈ 214 µM); in experiment [7], 50 µg/mL (≈ 107 µM); in the experiment with Candida albicans [9], 50 µg/mL (≈ 107 µM); with Pseudomonas aeruginosa [11] it was 12.5 µg/mL (≈ 26.7 µM); against Aspergillus niger [13], 100 µg/mL (≈ 214 µM). Further, the MIC99 worked out at 50 µg/mL (≈ 107 µM) with Escherichia coli [16], 100 µg/mL (≈ 214 µM) in the experiment on Salmonella typhi [17], 12.5 µg/mL (≈ 26.7 µM) in the experiment with Aspergillus fumigatus [18] and 50 µg/mL (≈ 107 µM) in the experiment with Candida albicans [19].
For `c1ccc(CN2C(c3ccccc3)C3=C(NOC3c3ccccn3)C3CCCCC32)cc1` (stereo not given), the zone of inhibition at 10 µg/mL amounted to 11 mm with Salmonella typhi [1]; 6 mm in the experiment on Bacillus subtilis [4]; 7 mm in the experiment with Aspergillus fumigatus [5]; 16 mm in experiment [6]; 7 mm in the experiment on Escherichia coli [8]; 10 mm with Aspergillus niger [10]. Further, the zone of inhibition at 10 µg/mL in the experiment on Candida albicans [12] came out at 18 mm; with Candida albicans [14] it was 18 mm; with Pseudomonas aeruginosa [15], 7 mm; with Staphylococcus aureus [20] it was 12 mm. Moreover, the MIC99 against Staphylococcus aureus [2] was found to be 50 µg/mL (≈ 118 µM); against Bacillus subtilis [3], 50 µg/mL (≈ 118 µM); in experiment [7], 25 µg/mL (≈ 59 µM); against Candida albicans [9], 12.5 µg/mL (≈ 29.5 µM); in the experiment with Pseudomonas aeruginosa [11] it was 12.5 µg/mL (≈ 29.5 µM); in the experiment with Aspergillus niger [13], 100 µg/mL (≈ 236 µM). Also, the MIC99 stood at 25 µg/mL (≈ 59 µM) with Escherichia coli [16], 50 µg/mL (≈ 118 µM) with Salmonella typhi [17], 12.5 µg/mL (≈ 29.5 µM) against Aspergillus fumigatus [18] and 50 µg/mL (≈ 118 µM) against Candida albicans [19].
Regarding `c1ccc(CN2C(c3ccccc3)C3=C(NOC3c3cccnc3)C3CCCCC32)cc1` (stereo not given), the zone of inhibition at 10 µg/mL in the experiment on Salmonella typhi [1] worked out at 11 mm; in the experiment on Bacillus subtilis [4], 3 mm; with Aspergillus fumigatus [5], 6 mm; in experiment [6] it was 13 mm; in the experiment with Escherichia coli [8] it was 4 mm; in the experiment on Aspergillus niger [10] it was 8 mm. Moreover, the zone of inhibition at 10 µg/mL in the experiment on Candida albicans [12] is 17 mm; with Candida albicans [14], 17 mm; in the experiment on Pseudomonas aeruginosa [15], 4 mm; in the experiment on Staphylococcus aureus [20], 11 mm. The MIC99 in the experiment with Staphylococcus aureus [2] was 50 µg/mL (≈ 118 µM); in the experiment on Bacillus subtilis [3], 100 µg/mL (≈ 236 µM); in experiment [7], 50 µg/mL (≈ 118 µM); against Candida albicans [9], 12.5 µg/mL (≈ 29.5 µM); with Pseudomonas aeruginosa [11], 50 µg/mL (≈ 118 µM); in the experiment with Aspergillus niger [13], more than 100 µg/mL. The MIC99 came to 100 µg/mL (≈ 236 µM) in the experiment on Escherichia coli [16], 100 µg/mL (≈ 236 µM) in the experiment on Salmonella typhi [17], 12.5 µg/mL (≈ 29.5 µM) in the experiment with Aspergillus fumigatus [18] and 50 µg/mL (≈ 118 µM) against Candida albicans [19].

The MIC99 is an inhibitory concentration at the 99% level, which refers to growth in some studies and to a panel of isolates in others.
